Laboratory results from patent publication US6352958B1, “Cycloimido-substituted benzofused heterocyclic herbicides” (FMC Corporation, priority 1997, dated 2002).

Tests used:
Type in all cases: in vivo
[1] = system: wheat (Triticum aestivum var. Lew); experiment: Preemergence herbicidal activity, wheat; settings: Rate of Application 0.3 Kg/Ha, examined after 12-17 days
[2] = system: common chickweed (Stellaria media); experiment: Postemergence herbicidal activity, chickweed; settings: rate of application 0.3 Kg/Ha, rated after 12-17 days
[3] = system: green foxtail (Setaria viridis); experiment: Preemergence herbicidal activity, green foxtail; settings: Rate of Application 0.3 Kg/Ha, examined after 12-17 days
[4] = system: common cocklebur (Xanthium strumarium L.); experiment: Preemergence herbicidal activity, cocklebur; settings: Rate of Application 0.3 Kg/Ha, examined after 12-17 days
[5] = system: soybean (Glycine max var. Winchester); experiment: Preemergence herbicidal activity, soybean; settings: Rate of Application 0.3 Kg/Ha, examined after 12-17 days
[6] = system: blackgrass (Aloepecurus myosuroides); experiment: Postemergence herbicidal activity, blackgrass; settings: rate of application 0.3 Kg/Ha, rated after 12-17 days
[7] = system: morningglory (Ipomea lacunosa or Ipomea hederacea); experiment: Preemergence herbicidal activity, morningglory; settings: Rate of Application 0.3 Kg/Ha, examined after 12-17 days
[8] = system: green foxtail (Setaria viridis); experiment: Postemergence herbicidal activity, green foxtail; settings: rate of application 0.3 Kg/Ha, rated after 12-17 days
[9] = system: Johnsongrass (Sorghum halepense); experiment: Preemergence herbicidal activity, johnsongrass; settings: Rate of Application 0.3 Kg/Ha, examined after 12-17 days
[10] = system: velvetleaf (Abutilon theophrasti); experiment: Postemergence herbicidal activity, velvetleaf; settings: rate of application 0.3 Kg/Ha, rated after 12-17 days
[11] = system: velvetleaf (Abutilon theophrasti); experiment: Preemergence herbicidal activity, velvetleaf; settings: Rate of Application 0.3 Kg/Ha, examined after 12-17 days
[12] = system: field corn (Zea mays var. Pioneer 3732); experiment: Preemergence herbicidal activity, corn; settings: Rate of Application 0.3 Kg/Ha, examined after 12-17 days
[13] = system: wheat (Triticum aestivum var. Lew); experiment: Postemergence herbicidal activity, wheat; settings: rate of application 0.3 Kg/Ha, rated after 12-17 days
[14] = system: soybean (Glycine max var. Winchester); experiment: Postemergence herbicidal activity, soybean; settings: rate of application 0.3 Kg/Ha, rated after 12-17 days
[15] = system: morningglory (Ipomea lacunosa or Ipomea hederacea); experiment: Postemergence herbicidal activity, morningglory; settings: rate of application 0.3 Kg/Ha, rated after 12-17 days
[16] = system: common cocklebur (Xanthium strumarium L.); experiment: Postemergence herbicidal activity, cocklebur; settings: rate of application 0.3 Kg/Ha, rated after 12-17 days
[17] = system: Johnsongrass (Sorghum halepense); experiment: Postemergence herbicidal activity, johnsongrass; settings: rate of application 0.3 Kg/Ha, rated after 12-17 days
[18] = system: blackgrass (Aloepecurus myosuroides); experiment: Preemergence herbicidal activity, blackgrass; settings: Rate of Application 0.3 Kg/Ha, examined after 12-17 days
[19] = system: common chickweed (Stellaria media); experiment: Preemergence herbicidal activity, chickweed; settings: Rate of Application 0.3 Kg/Ha, examined after 12-17 days
[20] = system: field corn (Zea mays var. Pioneer 3732); experiment: Postemergence herbicidal activity, corn; settings: rate of application 0.3 Kg/Ha, rated after 12-17 days

Compound | PREEMERGENCE HERBICIDAL ACTIVITY (% CONTROL) WHT [1] [%] | Postemergence herbicidal activity (% control) STEME [2] [%] | PREEMERGENCE HERBICIDAL ACTIVITY (% CONTROL) SETVI [3] [%] | PREEMERGENCE HERBICIDAL ACTIVITY (% CONTROL) XANPE [4] [%] | PREEMERGENCE HERBICIDAL ACTIVITY (% CONTROL) SOY [5] [%] | Postemergence herbicidal activity (% control) ALOMY [6] [%] | PREEMERGENCE HERBICIDAL ACTIVITY (% CONTROL) IPOSS [7] [%] | Postemergence herbicidal activity (% control) SETVI [8] [%] | PREEMERGENCE HERBICIDAL ACTIVITY (% CONTROL) SORHA [9] [%] | Postemergence herbicidal activity (% control) ABUTH [10] [%] | PREEMERGENCE HERBICIDAL ACTIVITY (% CONTROL) ABUTH [11] [%] | PREEMERGENCE HERBICIDAL ACTIVITY (% CONTROL) CRN [12] [%] | Postemergence herbicidal activity (% control) WHT [13] [%] | Postemergence herbicidal activity (% control) SOY [14] [%] | Postemergence herbicidal activity (% control) IPOSS [15] [%] | Postemergence herbicidal activity (% control) XANPE [16] [%] | Postemergence herbicidal activity (% control) SORHA [17] [%] | PREEMERGENCE HERBICIDAL ACTIVITY (% CONTROL) ALOMY [18] [%] | PREEMERGENCE HERBICIDAL ACTIVITY (% CONTROL) STEME [19] [%] | Postemergence herbicidal activity (% control) CRN [20] [%]
CCOC(=O)CCc1nc2c(-n3c(=O)cc(C(F)(F)F)n(C)c3=O)c(F)cc(Cl)c2[nH]1 [Compound 372] | 90 | 100 | 100 | 100 | 100 | 100 | 100 | 100 | 80 | 100 | 100 | 95 | 100 | 100 | 100 | 100 | 100 | 80 | 100 | 100
Cn1c(C(F)(F)F)cc(=O)n(-c2c(F)cc(Cl)c3cc(CCC(=O)O)oc23)c1=O [Compound 262] | 40 | 95 | 100 | 100 | 90 | 50 | 100 | 100 | 70 | 100 | 100 | 40 | 60 | 95 | 100 | 95 | 80 | 50 | 100 | 80
CC(C)c1cc2c(Cl)cc(F)c(-n3c(=O)cc(C(F)(F)F)n(C)c3=O)c2o1 [Compound 224] | 80 | 100 | 100 | 95 | 100 | 90 | 100 | 100 | 100 | 100 | 100 | 90 | 70 | 95 | 100 | 100 | – | 80 | 100 | 100
CC(C)C(=O)OC(C)c1cc2c(Cl)cc(F)c(-n3c(=O)cc(C(F)(F)F)n(C)c3=O)c2o1 (stereo not shown) [Compound 247] | 90 | 100 | 100 | 100 | 100 | 100 | 100 | 100 | 100 | 100 | 100 | 90 | 80 | 95 | 100 | 100 | – | 85 | 95 | 100
CNC(=O)OC(C)c1cc2c(Cl)cc(F)c(-n3c(=O)cc(C(F)(F)F)n(C)c3=O)c2o1 (stereo not shown) [Compound 249] | 80 | 100 | 10 | 90 | 100 | 100 | 100 | 100 | 100 | 100 | 100 | 95 | 80 | 95 | 100 | 100 | – | 80 | 100 | 100
CC(OC(C)(C)C)c1cc2c(Cl)cc(F)c(-n3c(=O)cc(C(F)(F)F)n(C)c3=O)c2o1 (stereo not shown) [Compound 244] | 80 | 100 | 100 | 100 | 95 | 75 | 90 | 100 | 100 | 100 | 100 | 100 | 60 | 95 | 100 | 100 | – | 70 | 70 | 90
Cn1c(C(F)(F)F)cc(=O)n(-c2ccc(Cl)c3cc(-c4ccccc4)oc23)c1=O [Compound 264] | 0 | 0 | 10 | 30 | 0 | 0 | 0 | – | 10 | 40 | 20 | 10 | 20 | 50 | 40 | 30 | 20 | 0 | 20 | 50
Cn1c(C(F)(F)F)cc(=O)n(-c2c(F)cc(Cl)c3cc(CCCC#N)oc23)c1=O [Compound 256] | 80 | 100 | 100 | – | 100 | 80 | 100 | 100 | 90 | 100 | 100 | 95 | 80 | 100 | 100 | 100 | 100 | 70 | 100 | 90
